# Peptide text beside a SMILES is read from it.
# Tested on: B. megaterium SR7
# Assay: Biolog GenIII sole carbon source growth
# Assay type: cell-based, Bacillus megaterium
# Settings: for Growth in carbon source Biolog plate, +Metals: trace metals-amended plate; for Growth in carbon source Biolog plate, +Metals / Growth in carbon source Biolog plate, I / Growth in carbon source Biolog plate, II: Table 11; for Growth in carbon source Biolog plate, I: unamended plate trial I; for Growth in carbon source Biolog plate, II: unamended plate trial II
# Method: Plates were incubated at 37° C. on a plate shaker at 200 rpm and assayed for growth using NADH-dependent colorimetric changes measured by OD490 on a microplate reader (BioTek Synergy 2; BioTek; Winooski, Vt.).
Structure (SMILES),"Growth in carbon source Biolog plate, +Metals","Growth in carbon source Biolog plate, I","Growth in carbon source Biolog plate, II","Growth on Biolog sole carbon source, SR7 (no metals added, Table 10)"
CC(=O)CC(=O)O [Acetoacetic Acid],−,−,+,
O=C(O)CC(O)(CC(=O)O)C(=O)O [Citric Acid],+++,+++,,
OC[C@@H](O)C(O)[C@H](O)CO [D-Arabitol],+,+,+,
N[C@H](CC(=O)O)C(=O)O [D-Aspartic Acid],−,−,−,
OC[C@H]1O[C@@H](O[C@H]2[C@H](O)[C@@H](O)[C@H](O)O[C@@H]2CO)[C@H](O)[C@@H](O)[C@@H]1O [D-Cellobiose],+,+,+,
O=P(O)(O)OC[C@H]1OC(O)(CO)[C@@H](O)[C@@H]1O (stereo partly drawn) [D-Fructose-6-PO4],−,+,−,
O=C(CO)[C@@H](O)[C@H](O)[C@H](O)CO [D-Fructose],+,+,+,
C[C@@H](O)[C@H](O)[C@H](O)[C@@H](O)C=O [D-Fucose],−,−,−,
O=C[C@H](O)[C@@H](O)[C@@H](O)[C@H](O)CO [D-Galactose],+,+,+,
O=C[C@H](O)[C@@H](O)[C@@H](O)[C@H](O)C(=O)O [D-Galacturonic Acid],−,−,+,
O=P(O)(O)OC[C@H]1OC(O)[C@H](O)[C@@H](O)[C@@H]1O (stereo partly drawn) [D-Glucose-6-PO4],−,−,−,
O=C[C@H](O)[C@@H](O)[C@H](O)[C@H](O)C(=O)O [D-Glucuronic Acid],−,+,+,
COC(=O)[C@@H](C)O [D-Lactic Acid Methyl Ester],+,+,+,
O=C(O)C[C@@H](O)C(=O)O [D-Malic Acid],−,−,−,
OC[C@H]1O[C@H](O[C@H]2[C@H](O)[C@@H](O)[C@H](O)O[C@@H]2CO)[C@H](O)[C@@H](O)[C@@H]1O [D-Maltose],+,−,+,−
O=C[C@@H](O)[C@@H](O)[C@H](O)[C@H](O)CO [D-Mannose],−,−,−,
OC[C@H]1O[C@H](OCC2O[C@@H](O)[C@H](O)[C@@H](O)[C@@H]2O)[C@H](O)[C@@H](O)[C@H]1O (stereo partly drawn) [D-Melibiose],+,+,+,
OC[C@H]1O[C@H](OC[C@H]2O[C@H](O[C@]3(CO)O[C@H](CO)[C@@H](O)[C@@H]3O)[C@H](O)[C@@H](O)[C@@H]2O)[C@H](O)[C@@H](O)[C@H]1O [D-Raffinose],+++,−,+,

Structure (SMILES),"Growth in carbon source Biolog plate, +Metals","Growth in carbon source Biolog plate, I","Growth in carbon source Biolog plate, II","Growth on Biolog sole carbon source, SR7 (no metals added, Table 10)"
OC[C@@H](O)[C@@H](O)[C@H](O)[C@@H](O)CO [D-Sorbitol],+,+,−,
OC[C@H]1O[C@H](O[C@H]2O[C@H](CO)[C@@H](O)[C@H](O)[C@H]2O)[C@H](O)[C@@H](O)[C@@H]1O [D-Trehalose],+,−,+,
O=CO [Formic Acid],−,+,−,
NC(=O)[C@@H](O)[C@@H](O)[C@H](O)[C@@H](O)C=O [Glucuronamide],−,−,−,
OCC(O)CO [Glycerol],+,+,+,
NCC(=O)N1CCC[C@H]1C(=O)O [Glycyl-L-Proline] (H-Gly-Pro-OH),−,−,−,
OC[C@H]1O[C@@H](n2cnc3c(O)ncnc32)[C@H](O)[C@@H]1O [Inosine],+,−,+,
N=C(N)NCCC[C@H](N)C(=O)O [L-Arginine],+++,+,+,
C[C@H](O)[C@@H](O)[C@@H](O)[C@H](O)C=O [L-Fucose],−,−,−,
O=C1O[C@H]([C@@H](O)CO)[C@@H](O)[C@@H]1O [L-Galactonic Acid Lactone],−,−,+,
O=C1CC[C@@H](C(=O)O)N1 [L-Pyroglutamic Acid],+++,+,+,
C[C@H](O)[C@H](O)[C@@H](O)[C@@H](O)C=O [L-Rhamnose],−,−,−,
N[C@@H](CO)C(=O)O [L-Serine],−,+,+,
COC(=O)C(C)=O [Methyl Pyruvate],+,+,+,
O=C(O)[C@@H](O)[C@H](O)[C@H](O)[C@@H](O)C(=O)O [Mucic Acid],−,−,+,
CC(=O)N[C@H]1[C@H]([C@H](O)[C@H](O)CO)OC(O)(C(=O)O)C[C@@H]1O (stereo partly drawn) [N-Acetyl Neuraminic Acid],−,−,−,
CC(=O)N[C@H]1C(O)O[C@H](CO)[C@H](O)[C@@H]1O (stereo partly drawn) [N-Acetyl-D-Galactosamine],−,+,−,
